Where two headings read alike, the source gives them in different places.
Columns and labels:
MIA PaCa-2 cells = assay: MIA PaCa-2 CTG Assay (CellTiter-Glo cell viability); assay type: cell-based, human; conditions: Homo sapiens; Mia PaCa-2, 72 h; second value of the cell; read-out: G12D/C/V Cell Proliferation CTG (72 h) Mia PaCa-2
Procedure, shortened: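 IC50 values come from a 4-parameter logistic fit of CellTiter-Glo luminescence, normalized to DMSO control, after 72 h compound exposure at 37° C, 5% CO2. Cells grew in RPMI 1640 plus 10% FBS and were seeded at 1.67E+04 cells/mL one night before dosing.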

[1] = system: Phosphorylation of ERK1/2 in AsPC-1 cells; assay: Phospho-ERK1/2 MSD Assay; assay type: cell-based, human; conditions: Homo sapiens, ASPC1, 2 h, read-out: 2 h p-ERK (AsPC-1 cells), IC50
Procedure, shortened: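 Read-out: MSD electrochemiluminescent detection of phosphorylated ERK1/2 in whole-cell lysates, fitted to a 4-parameter logistic curve for IC50. Prior to lysis, AsPC-1 cells (25,000 per well) received a 2 h compound dose-response at 37 °C.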

AsPC-1 cells = assay: AsPC-1 CTG Assay (CellTiter-Glo cell viability); assay type: cell-based, human; conditions: Homo sapiens, ASPC1, 72 h, AsPC-1, 72 h; first value of the cell; read-out: G12D/C/V Cell Proliferation CTG (72 h) AsPC-1
Procedure, shortened: (§1)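 IC50 values derive from 4-parameter logistic fits of CellTiter-Glo luminescence, expressed relative to DMSO. Compound dilution series were applied to overnight-seeded AsPC-1 or SW620 cells (RPMI 1640, 10% FBS) for 72 h at 37 °C, 5% CO2.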

[2] = target: His-tagged KRAS G12D protein (Homo sapiens (Human), UniProt P01116, G12D); assay: KRAS G12D TR-FRET Assay; assay type: binding; conditions: read-out: KRAS G12D Binding IC50
Chain of His-tagged KRAS G12D protein (P01116 other isoform, or with tags, fused parts or gaps G12D): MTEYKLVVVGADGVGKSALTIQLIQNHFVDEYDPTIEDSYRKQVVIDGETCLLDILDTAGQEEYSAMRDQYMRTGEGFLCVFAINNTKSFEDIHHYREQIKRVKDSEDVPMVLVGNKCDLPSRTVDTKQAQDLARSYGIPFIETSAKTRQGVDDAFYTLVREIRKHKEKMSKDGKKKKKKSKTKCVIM
Procedure, shortened: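 Each incubation ran at room temperature: enzyme with compound for 30 minutes, peptide for one hour, and detection reagents (0.4 nM europium anti-6×His, 5 nM streptavidin-d2) for one hour more. Protein and peptide stocks were each diluted to 20 nM before addition.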

SW620 cells = assay: SW620 CTG Assay (CellTiter-Glo cell viability); assay type: cell-based, human; conditions: Homo sapiens, SW-620; SW620, 72 h; third value of the cell; read-out: G12D/C/V Cell Proliferation CTG (72 h) SW620
Procedure, shortened: as §1

[3] = system: p-ERK in PANC 04.03 tumor-bearing mice; assay: Tumor Pharmacodynamic Assay (p-ERK inhibition in PANC 04.03 tumors); assay type: in vivo; conditions: Mus musculus; PANC 04.03 tumor-bearing female athymic nude mice; single oral dose 100 mg/kg; tumors harvested 2 hr later; relative to vehicle group
Experimental: Tumor Pharmacodynamic Assays
Inhibitor pharmacodynamic effects were assessed in PANC 04.03 tumor-bearing mice. PANC 04.03 tumor cells (5.0E+06 cells) were injected subcutaneously into the flank of female athymic nude mice in a mixture with Matrigel (BD Bioscience). Mice received a single oral dose of either vehicle or inhibitor (100 mg/kg) when the average tumor size reached -300-600 mm^3 (n=3/group) and harvested 2 hours later. Tumor samples were collected, snap frozen, and processed for analysis by pulverizing with a cryoPREP® Dry Impactor (Covaris). Pulverized samples were resuspended in RIPA lysis buffer containing protease and phosphatase inhibitors and homogenized. Cleared lysates were analyzed using phospho-ERK1/2 and total ERK1/2 whole cell lysate kits (Meso Scale Discovery) according to the manufacturer's protocol. Phospho-ERK1/2 signal was normalized to total ERK1/2 signal for a given sample, and percent inhibition of p-ERK was calculated relative to the vehicle group.

[4] = target: GDP-bound KRAS protein (aa 1-169), containing both G12D and C118A amino acid substitutions (Homo sapiens (Human), UniProt P01116, C118A/G12D); assay: KRAS G12D Coupled Nucleotide Exchange Assay; assay type: biochemical; conditions: read-out: KRAS G12D Coupled Exchange IC50
Chain of GDP-bound KRAS protein (aa 1-169), containing both G12D and C118A amino acid substitutions (P01116 other isoform, or with tags, fused parts or gaps G12D/C118A): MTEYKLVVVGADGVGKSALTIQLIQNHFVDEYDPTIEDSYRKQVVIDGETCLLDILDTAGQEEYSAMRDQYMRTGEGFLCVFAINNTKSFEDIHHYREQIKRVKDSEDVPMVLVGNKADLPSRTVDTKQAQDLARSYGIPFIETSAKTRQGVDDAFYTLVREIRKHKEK

| Compound | IC50 (MIA PaCa-2 cells) | IC50 [1] | IC50 (AsPC-1 cells) | IC50 [2] | IC50 (SW620 cells) | inhibition in vivo at 100 mg/kg [3] | IC50 [4] | ring closure, yield after HPLC (from N[C@@H]1CCCN(c2nc(OC[C@@]34CCCN3C[C@H](F)C4)nc3c(F)c(-c4cc(O)cc5cccc(CCCC(=O)O)c45)ncc23)C1, amide bond, 16-membered ring, HATU/DIEA, then NH3/MeOH, DMF, 8.9 mM, 25.0 °C, 1.0 h) | ring closure, yield after HPLC (from C[C@@]1(N)CCCN(c2nc(OC[C@@]34CCCN3C[C@H](F)C4)nc3c(F)c(-c4cccc5c4N(CCCC(=O)O)CCC5)ncc23)C1, amide bond, 16-membered ring, HATU/TEA, DCM/THF/DMA, 0.98 mM, 25.0 °C) | ring closure, yield after HPLC (from CSc1nc(N2CCC[C@@](C)(N)C2)c2cnc(-c3cc(O)cc4ccc(F)c(CCCC(=O)O)c34)c(C)c2n1, amide bond, 16-membered ring, HATU, then Me2NH, DCM/DMA/DMF, 5.6 mM, 25.0 °C, 4.0 h) | ring closure, yield after HPLC (from COCOc1cc(-c2ncc3c(N4CCC[C@@](C)(N)C4)nc(OC)nc3c2F)c2c(CCCC(=O)O)c(F)ccc2c1, amide bond, 16-membered ring, HATU/DIEA, then HCl/dioxane, DMF, 8.3 mM, 25.0 °C, 2 steps) | ring closure, yield after HPLC (from Fc1c(-c2c(CCCCOC3CC4(CCCNC4)C3)c(Cl)cc3[nH]ncc23)ncc2c(OCC(F)(F)F)nc(OC[C@@]34CCCN3C[C@H](F)C4)nc12, snar bond, 17-membered ring, Cs2CO3, MeCN/DMF, 5.0 mM, 80.0 °C) |
| --- | --- | --- | --- | --- | --- | --- | --- | --- | --- | --- | --- | --- |
| O=C1OCCc2c(Cl)cc3[nH]ncc3c2-c2ncc3c(nc(OC[C@@]45CCCN4C[C@H](F)C5)nc3c2F)N2CCC[C@]3(C2)C[C@H](C3)O1 [Example 249, (1S,3R)-10-chloro-32-fluoro-24-(((2R,7aS)-2-fluorotetrahydro-1H-pyrrolo[1,2-a]pyrrol-7a(5H)-yl)methoxy)-4,6-dioxa-13,14,19,23,25,27-hexaazaheptacyclo[25.3.1.1~1,3~.1~18,22~.0~9,17~.0~12,16~.0~21,26~]tritriaconta-9,11,14,16,18(32),19,21,23,25-nonaen-5-one] | 2 nM | 0.7 nM | 5 nM | 4 nM | 3 nM | 90% | 1 nM |  |  |  |  |  |
| Cc1cc2[nH]ncc2c2c1CCOC(=O)O[C@H]1C[C@@]3(CCCN(C3)c3nc(OC[C@@]45CCCN4C[C@H](F)C5)nc4c(F)c-2ncc34)C1 [Example 194, (1S,3R)-32-fluoro-24-(((2R,7aS)-2-fluorotetrahydro-1H-pyrrolo[1,2-a]pyrrol-7a(5H)-yl)methoxy)-10-methyl-4,6-dioxa-13,14,19,23,25,27-hexaazaheptacyclo[25.3.1.1~1,3~.1~18,22~.0~9,17~.0~12,16~.0~21,26~]tritriaconta-9,11,14,16,18(32),19,21,23,25-nonaen-5-one] | 7 nM | 1.3 nM | 6 nM | 5 nM | 4 nM | 88% | 3 nM |  |  |  |  |  |
| C[C@@]12COCCN(C1)c1nc(OC[C@@]34CCCN3C[C@H](F)C4)nc3c(F)c(ncc13)-c1c(c(Cl)cc3[nH]ncc13)CCCOC(=O)O2 [Example 191, (26S)-18-chloro-32-fluoro-4-(((2R,7aS)-2-fluorotetrahydro-1H-pyrrolo[1,2-a]pyrrol-7a(5H)-yl)methoxy)-26-methyl-23,25,28-trioxa-1,3,5,9,14,15-hexaazahexacyclo[24.4.1.1~6,10~.0~2,7~.0~11,19~.0~12,16~]dotriaconta-2,4,6,8,10(32),11,13,16,18-nonaen-24-one] | 1 nM | 1.9 nM | 8 nM | 3 nM | 2 nM | 91% | 2 nM |  |  |  |  |  |
| O=C1CCCc2cccc3cc(O)cc(c23)-c2ncc3c(nc(OC[C@@]45CCCN4C[C@H](F)C5)nc3c2F)N2CCC[C@H](C2)N1 [Example 1, (15R)-31-Fluoro-8-(((2R,7aS)-2-fluorotetrahydro-1H-pyrrolo[1,2-a]pyrrol-7a(5H)-yl)methoxy)-27-hydroxy-3,7,9,11,16-pentaazahexacyclo[19.7.1.1˜2,6˜.1˜11,15˜.0˜5,10˜.0˜25,29˜]hentriaconta-1(28),2(31),3,5,7,9,21,23,25(29),26-decaen-17-one bis(2,2,2-trifluoroacetate)] |  | 196 nM | 1930 nM | 5 nM |  |  | 4 nM | 7% |  |  |  |  |
| C[C@@]12CCCN(C1)c1nc(OC[C@@]34CCCN3C[C@H](F)C4)nc3c(F)c(ncc13)-c1cccc3c1N(CCCC(=O)N2)CCC3 [Example 13, (15R)-31-Fluoro-8-(((2R,7aS)-2-fluorotetrahydro-1H-pyrrolo[1,2-a]pyrrol-7a(5H)-yl)methoxy)-15-methyl-3,7,9,11,16,21-hexaazahexacyclo[19.7.1.1˜2,6˜.1˜11,15˜.0˜5,10˜.0˜25,29˜]hentriaconta-1(29),2(31),3,5,7,9,25,27-octaen-17-one bis(2,2,2-trifluoroacetate)] |  |  |  | 238 nM |  |  | 342 nM |  | 33% |  |  |  |
| Cc1cc2[nH]ncc2c2c1CCCOC(=O)O[C@]1(C)COCCN(C1)c1nc(OC[C@@]34CCCN3C[C@H](F)C4)nc3c(F)c-2ncc13 [Example 190, (26S)-32-fluoro-4-(((2R,7aS)-2-fluorotetrahydro-1H-pyrrolo[1,2-a]pyrrol-7a(5H)-yl)methoxy)-18,26-dimethyl-23,25,28-trioxa-1,3,5,9,14,15-hexaazahexacyclo[24.4.1.1~6,10~.0~2,7~.0~11,19~.0~12,16~]dotriaconta-2,4,6,8,10(32),11,13,16,18-nonaen-24-one] | 4 nM | 4.5 nM | 5 nM | 4 nM | 4 nM | 86% | 2 nM |  |  |  |  |  |
| O=C1OCCCc2c(Cl)cc3[nH]ncc3c2-c2ncc3c(nc(OC[C@@]45CCCN4C[C@H](F)C5)nc3c2F)N2CCOC[C@H](C2)O1 [Example 99, (26S)-18-Chloro-32-fluoro-4-(((2R,7aS)-2-fluorotetrahydro-1H-pyrrolo[1,2-a]pyrrol-7a(5H)-yl)methoxy)-23,25,28-trioxa-1,3,5,9,14,15-hexaazahexacyclo[24.4.1.1˜6,10˜.0˜2,7˜.0˜11,19˜.0˜12,16˜]dotriaconta-2,4,6,8,10(32),11,13,16,18-nonaen-24-one] | 1 nM | 2 nM | 30 nM | 3 nM | 10 nM | 91% | 2 nM |  |  |  |  |  |
| CSc1nc2c3cnc(c(C)c3n1)-c1cc(O)cc3ccc(F)c(c13)CCCC(=O)N[C@]1(C)CCCN2C1 |  |  |  |  |  |  |  |  |  | 32% |  |  |
| CN1CCC[C@H]1COc1nc2c3cnc(c(F)c3n1)-c1c(c(Cl)cc3[nH]ncc13)CCOC(=O)O[C@H]1C[C@]3(CCCN2C3)C1 (single isomer, unassigned) [Example 212] | 24 nM | 5.3 nM | 79 nM | 4 nM | 20 nM | 85% | 3 nM |  |  |  |  |  |
| Cc1cc2[nH]ncc2c2c1CCCOC(=O)O[C@@H]1COCCN(C1)c1nc(OC[C@@]34CCCN3C[C@H](F)C4)nc3c(F)c-2ncc13 [Example 97, (26S)-32-fluoro-4-(((2R,7aS)-2-fluorotetrahydro-1H-pyrrolo[1,2-a]pyrrol-7a(5H)-yl)methoxy)-18-methyl-23,25,28-trioxa-1,3,5,9,14,15-hexaazahexacyclo[24.4.1.1~6,10~.0~2,7~.0~11,19~.0~12,16~]dotriaconta-2,4,6,8,10(32),11,13,16,18-nonaen-24-one] | 20 nM | 9 nM | 80 nM | 2 nM | 20.8 nM | 85% | 1 nM |  |  |  |  |  |
| COCOc1cc2c3c(c(F)ccc3c1)CCCC(=O)N[C@]1(C)CCCN(C1)c1nc(OC)nc3c(F)c-2ncc13 |  |  |  |  |  |  |  |  |  |  | 5% |  |
| Fc1c2ncc3c(nc(OC[C@@]45CCCN4C[C@H](F)C5)nc13)N1CCCC3(CC(C3)OCCCCc3c(Cl)cc4[nH]ncc4c3-2)C1 |  |  |  |  |  |  |  |  |  |  |  | 5% |
